# Measurements: patent US20050249675A1, “Mucin synthesis inhibitors” (priority 2003, published 2005)
# Entries after “also recorded” stand apart in the source; their conditions may differ. Like-named read-outs stand apart in the source and are kept apart here.
# Columns and labels:
# Muc5b = assay: Inhibition of Muc5b expression; assay type: cell-based; design: key: (+) = inhibition; (−) = no inhibition; conditions: Table 2
# Method: The effects of talniflumate derivatives on mucin production were also assayed for changes in ELLA and IC50 (Table 2) as described in the methods above.
# H292 clone 15 cells [1] = assay: ELLA for MUC5AC, H292 clone 15 cells (Example 11); assay type: cell-based, human; conditions: MUC5AC in conditioned media, 48 hours, average of 3 experiments
# Method: ELLA (Enzyme-Linked Lectin Assay) was used to determine the inhibitory effect of compounds on mucus production by H292 clone 15 cells. H292 clone 15 cells, a subclone from human pulmonary mucoepidermoid carcinoma cells overexpressing hCLCA1, were grown to confluent, followed by incubation with increasing concentrations of compounds for 48 hours. Conditioned media were collected and MUC5AC (the major secretory mucin in lungs) content was determined by ELLA measurement as described below. 96 well microtiter plates were coated with a mouse monoclonal antibody against human MUC5AC (1-13M1, NeoMarkers), then incubated with test conditioned media. Bound MUC5AC was detected by horseradish peroxidase-conjugated soybean lectin that has a high affinity towards highly-glycosylated proteins such as MUC5AC. Conversion of peroxidase substrate TMB (Tetramethylbenzidine Base) was quantified by reading at 450 nm. O.D. (optical density) readings were plotted against concentrations of compounds. Linear regression was used to derive the concentration at which O.D. was reduced by 50% (IC50) when compared to vehicle-treated cells.
# H292 clone 15 cells [2] = assay: Alamar Blue cytotoxicity; conditions: for Est. LD50 (Alamar Blue): H292 clone 15 cells, 48 hours, average of 3 experiments
# [3] = system: MUC5A/C secretion in hCLCA1 expressing H292 cells; assay: MUC5A/C secretion by ELLA in hCLCA1 expressing H292 cells; assay type: cell-based, human; design: key to ELLA: (+) = inhibition; (−) = no inhibition
# [4] = system: mice sensitized by nasal aspiration of Aspergillus fumigatus antigen; assay: Aspergillus fumigatus antigen murine asthma model, intra-tracheal NFA; assay type: in vivo; conditions: 100 μg NFA intra-tracheal, days 0-21
# activated Caco2 cells = assay: PAS staining for mucin in activated Caco2 cells; conditions: activated Caco2 cells; 100 μm for NFA and 300 μm for DIDS; vs untreated cells
# activated LHL4 cells = assay: Eotaxin ELISA, activated LHL4 cells; assay type: cell-based; conditions: increasing concentrations
# Method: Activated LHL4 cells that express and secrete eotaxin have been produced and used to test for inhibitors of eotaxin production. These cells were assayed in vitro for eotaxin by an ELISA technique well known in the art (R&D Systems).
# NCI-H292/hCLCA1 cells = assay: AB/PAS staining of mucous glycoconjugates in NCI-H292/hCLCA1 cells; assay type: cell-based, human; conditions: NFA 100 μM, MFA 125 or 250 μM, talniflumate 12.5, 25 or 50 μM; vs untreated cells
# Method: For the determination of mucous glycoconjugate production, NCI-H292/ctl and NCI-H292/hCLCA1 (AAF 15) cells were cultured in 24-well plates for 3 days. Cells were then fixed with Formalin and mucous glycoconjugates were visualized by AB/PAS staining (Sigma). […] For chloride channel blockage studies, cells were cultured in the presence of niflumic acid (NFA) (Sigma) at 100 μM concentration, mefanamic acid (MFA) at 125 or 250 μM or talniflumate at 12.5, 25 or 50 μM, or media alone.
# For the determination of mucous glycoconjugate production, NCI-H292/hCLCA1 cells were cultured in 24-well plates for 3 days with at concentrations of 0 to 150 μM of the talniflumate enantiomers or media alone (control). Cells were then fixed with Formalin and mucous glycoconjugates were visualized by AB/PAS staining (Sigma). […] In this assay both enantiomers were seen to inhibit muco-glycoconjugate production at concentrations>40 μM.
# IL9 transgenic mice = assay: Mucin production in lungs of IL9 transgenic mice; assay type: in vivo; conditions: IT once daily for three days; NFA 100 μg
# Method: Certified virus-free male and female IL9 transgenic mice (IL9TG5-FVB/N) 5-6 weeks of age were bred in our laboratories. Male and female FVB/N mice 5-6 weeks of age were purchased from Jackson Laboratories (Bar Harbor Me.). Animals were housed in high-efficiency, particulate filtered air and allowed free access to food and water for 3 to 7 days prior to experimental manipulation. The animal facilities were maintained at 22° C. and the light:dark cycle was automatically controlled (10:14 hour light:dark).
# Animals were phenotyped, naïve, or 24 hrs after receiving intra-tracheal (IT) shame (vehicle) treatment, or drugs in the same vehicle as was used in identically treated controls. Mice were treated IT once daily for three days. NFA (100 μg) or antibody to IL-9 were administered in PBS IT. Treatment responses were measured by the assessment of mucin inhibition by histologic exam (PAS staining of greater than 10 sections through the treated and control lungs or western blots of MUC 1, MUC2 and MUC3 expression from the same lungs.
# The up-regulation of mucus production in the IL9 transgenic is specifically associated with increased steady-state mRNA levels of MUC2 and MUC5AC as shown by RT-PCR (FIG. 9).
# [5] = system: activated Caco2 cell line; assay: Viability of activated Caco2 cells; assay type: cell-based; conditions: even higher concentrations of NFA; FIG. 3
# [6] = system: mice sensitized to Aspergillus fumigatus; assay: Aspergillus fumigatus murine asthma model, talniflumate chow; assay type: in vivo; conditions: oral; for Lung eosinophilia by bronchoalveolar lavage: talniflumate chow, vs sensitized mice fed standard chow
# [7] = system: CF mice (CF knock-out mice and CF AF508 mice); assay: CF mice body weight and survival on talniflumate chow; assay type: in vivo; conditions: approximate dose of 100 mg/kg per os in chow
# Method: Within two weeks of weaning, the osmotic agent treatment was discontinued and the mice were either placed on talniflumate containing chow or control chow. The CF mice consuming control chow lost 10-15% body weight and died (CF knock-out) or were euthanized (CF AF508) due to the animal's moribund state within 7 days post-osmotic agent. In contrast, the CF mice that consumed talniflumate (approximate dose of 100 mg/kg per os) gained 8-12% body weight and survived at least 26 days, at which time they were sacrificed to evaluate histopathology (see FIG. 20).
# [8] = target: T1, human chloride channel hCLCA1 (Homo sapiens, UniProt A8K7I4); assay: Patch clamp chloride current, NCI-H292 cell expressing hCLCA1; assay type: cell-based; conditions: 5 micromolar talniflumate; 2 μM ionomycin and 2 mM calcium; positive voltage
# T1 construct: expressed in transfected cells; host or cells: NCI-H292 (human pulmonary mucoepidermoid carcinoma)
# T1 sequence (A8K7I4 22-914): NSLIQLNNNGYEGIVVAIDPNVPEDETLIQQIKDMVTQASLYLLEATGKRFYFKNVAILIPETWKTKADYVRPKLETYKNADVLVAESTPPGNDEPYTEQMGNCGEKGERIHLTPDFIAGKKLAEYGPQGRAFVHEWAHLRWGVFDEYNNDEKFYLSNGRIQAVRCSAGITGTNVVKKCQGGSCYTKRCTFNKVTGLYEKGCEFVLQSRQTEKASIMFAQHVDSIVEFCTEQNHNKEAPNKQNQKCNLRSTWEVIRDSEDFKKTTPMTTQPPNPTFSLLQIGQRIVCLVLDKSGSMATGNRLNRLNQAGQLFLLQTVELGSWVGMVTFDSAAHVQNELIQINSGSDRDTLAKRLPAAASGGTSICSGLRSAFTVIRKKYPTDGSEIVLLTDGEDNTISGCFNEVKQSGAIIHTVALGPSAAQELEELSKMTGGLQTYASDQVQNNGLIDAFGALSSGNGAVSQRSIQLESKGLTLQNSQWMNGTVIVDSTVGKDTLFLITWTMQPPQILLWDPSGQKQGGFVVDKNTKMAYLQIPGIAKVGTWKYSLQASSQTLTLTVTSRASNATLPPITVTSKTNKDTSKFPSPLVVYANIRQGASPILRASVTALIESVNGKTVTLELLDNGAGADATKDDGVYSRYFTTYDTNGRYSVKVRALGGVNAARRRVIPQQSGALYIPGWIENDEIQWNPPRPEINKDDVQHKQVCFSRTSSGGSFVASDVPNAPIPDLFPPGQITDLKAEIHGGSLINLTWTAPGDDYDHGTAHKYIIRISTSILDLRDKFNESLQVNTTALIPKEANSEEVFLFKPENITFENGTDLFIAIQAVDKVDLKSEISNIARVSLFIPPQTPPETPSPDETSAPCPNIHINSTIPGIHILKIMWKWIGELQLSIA
# Method: An NCI-H292 cell transfected with a plasmid expressing the human chloride channel hCLCA1 was patch clamped and chloride current (I) was measured over a range of voltages (V). Substantial chloride current was invoked by the addition of 2 μM ionomycin and 2 mM calcium (circles) compared to baseline (squares), indicating activation of hCLCA1.
# MUC2 = assay type: cell-based; conditions: LTA from S. aureus; FIG. 22
smiles,measurement,setting,value
O=C1OC(CC(=O)c2cccnc2Nc2cccc(C(F)(F)F)c2)c2ccccc21 (stereo not drawn) [4 (MSI 2216)],Inhibition of Muc5b Expression,Muc5b,+
same,IC50,H292 clone 15 cells [1],3 µM
same,Est. LD50 (Alamar Blue),H292 clone 15 cells [2],32 µM
same,IC50,"[3]; Table 2, ELLA, read-out: IC50",5 µM
same,ELLA,"[3]; Table 2, mucin production",+
"O=C(O)c1cccnc1Nc1cccc(C(F)(F)F)c1 [NFA, niflumic acid]",Serum IgE levels,[4],no effect
same,Antigen-induced airway hyperresponsiveness,[4]; vs PBS,suppress airway hyperresponsiveness; also recorded: suppresses antigen-induced airway hyperresponsiveness
same,BAL lung eosinophilia,[4]; vs PBS,suppress; also recorded: reduces antigen-induced lung eosinophilia
same,Over-production of mucus in the lung caused by exposure to antigen,[4]; vs PBS,suppress the over-production of mucus; also recorded: blocks increased mucin expression
same,PAS positive staining mucin glycoconjugates,activated Caco2 cells,significantly fewer positive staining mucin glycoconjugates; also recorded: blocks mucin overproduction in vitro
same,Eotaxin production,activated LHL4 cells,Significant inhibition; also recorded: blocks epithelial activation including chemokine production
same,PAS positive staining muco-glycoconjugates,NCI-H292/hCLCA1 cells,significantly fewer positive staining muco-glycoconjugates
same,Mucin production in IL9 transgenic lungs,IL9 transgenic mice,decreased mucin production
same,Viability of activated Caco2 cells,[5],not affected; also recorded: did not effect their viability
"O=C1OC(OC(=O)c2cccnc2Nc2cccc(C(F)(F)F)c2)c2ccccc21 (racemic) [Talniflumate, talniflumate]",Lung eosinophilia by bronchoalveolar lavage,[6],reduced the number of eosinophilic cells
same,Lung eosinophilia by bronchoalveolar lavage,[6]; listed as talniflumate,inhibition of lung eosinophilia
same,Mucin (PAS) staining in lung,"[6]; talniflumate containing chow, Asp-sens mice",reduced mucin staining; also recorded: inhibition of mucin over production
same,Body weight gain,[7],8-12%
same,Survival,[7]; then sacrificed,at least 26 days
same,PAS positive staining muco-glycoconjugates,NCI-H292/hCLCA1 cells,significantly fewer positive staining muco-glycoconjugates
same,IC50,"H292 clone 15 cells [1]; Homo sapiens, NCI-H292",33 µM
same,Chloride Current,[8],reduction in chloride current
same,Lipoteichoic acid induction of MUC2 (luciferase RLU),MUC2,modulated
same,Est. LD50 (Alamar Blue),H292 clone 15 cells [2],108 µM
same,LD50 (Alamar Blue),"H292 clone 15 cells [2]; NCI-H292/hCLCA1 cells, concentrations up to 150 μM, FIG. 27",> 150 µM
same,Inhibition of MUC5A/C secretion / mucin production (figure legends),[3],inhibition of mucin production
same,IC50,"[3]; Homo sapiens, NCI-H292/hCLCA1 cells, 0 through 150 μM, 48 hours, FIG. 26, read-out: IC50, inhibition of MUC5A/C secretion",36 µM
